Laboratory results from US20120129875A1, “SUBSTITUTED QUINAZOLINES AS FUNGICIDES” (SYNGENTA CROP PROTECTION, LLC, priority 2009, published 2012).

Tested on: Phaeosphaeria nodorum (Septoria nodorum)
Assay: Phaeosphaeria nodorum (Septoria nodorum) / wheat / leaf disc preventative (glume blotch)
Type: in vivo
Conditions: Parastagonospora nodorum, foliar, wheat leaf segments cv. Kanzler on agar, inoculated 2 days after application, vs untreated control, read-out: disease control
Experimental: Phaeosphaeria nodorum (Septoria nodorum)/Wheat/Leaf Disc Preventative (Glume Blotch) Wheat leaf segments cv. Kanzler are placed on agar in a multiwell plate (24-well format) and sprayed with the formulated test compound diluted in water. The leaf disks are inoculated with a spore suspension of the fungus 2 days after application. The inoculated test leaf disks are incubated at 20° C. and 75% rh under a light regime of 12 h light/12 h darkness in a climate cabinet and the activity of a compound is assessed as percent disease control compared to untreated when an appropriate level of disease damage appears in untreated check leaf disks (5-7 days after application).

Compound | pest or weed control at 200 ppm [%]
Clc1cccc(-c2cccc(-c3ncc4ccccc4n3)n2)c1Cl [2/50] | ≥ 80
COc1ccc(-c2cccc(-c3ncc4ccccc4n3)n2)cc1F [2/57] | ≥ 80
N#Cc1ccccc1-c1cccc(-c2ncc3ccccc3n2)n1 [2/61] | ≥ 80
Fc1cccc(F)c1-c1cccc(-c2ncc3ccccc3n2)n1 [2/104] | ≥ 80
CC(=O)c1ccccc1-c1cccc(-c2ncc3ccccc3n2)n1 [2/105] | ≥ 80
Cc1ccc(-c2cccc(-c3ncc4ccccc4n3)n2)c2ccccc12 [2/108] | ≥ 80
O=Cc1c(F)ccc(-c2cccc(-c3ncc4ccccc4n3)n2)c1F [2/110] | ≥ 80
O=Cc1ccc(-c2cccc(-c3ncc4ccccc4n3)n2)c(F)c1F [2/111] | ≥ 80
O=[N+]([O-])c1ccccc1-c1cccc(-c2ncc3ccccc3n2)n1 [2/112] | ≥ 80
COc1cccc(OC)c1-c1cccc(-c2ncc3ccccc3n2)n1 [2/113] | ≥ 80
OCc1c(-c2cccc(-c3ncc4ccccc4n3)n2)ccc2ccccc12 [2/115] | ≥ 80
OCc1cc2ccccc2cc1-c1cccc(-c2ncc3ccccc3n2)n1 [2/116] | ≥ 80
OCc1cc(F)ccc1-c1cccc(-c2ncc3ccccc3n2)n1 [2/117] | ≥ 80
c1cc(-c2ncc3ccccc3n2)nc(-c2cc3ccccc3c3ccccc23)c1 [2/119] | ≥ 80
COc1cc(-c2cccc(-c3ncc4ccccc4n3)n2)c(OC)cc1C [2/121] | ≥ 80
Cc1c(F)cccc1-c1cccc(-c2ncc3ccccc3n2)n1 [2/124] | ≥ 80
COc1ccc(C=O)cc1-c1cccc(-c2ncc3ccccc3n2)n1 [2/125] | ≥ 80
Cc1c(Cl)cccc1-c1cccc(-c2ncc3ccccc3n2)n1 [2/126] | ≥ 80
COc1cc(F)c(F)cc1-c1cccc(-c2ncc3ccccc3n2)n1 [2/128] | ≥ 80
COC(=O)c1ccccc1-c1cccc(-c2ncc3ccccc3n2)n1 [2/130] | ≥ 80
COc1cc(F)c(-c2cccc(-c3ncc4ccccc4n3)n2)c(F)c1 [2/131] | ≥ 80
Fc1cc(F)c(-c2cccc(-c3ncc4ccccc4n3)n2)c(F)c1 [2/132] | ≥ 80
Cc1cc(-c2cccc(-c3ncc4ccccc4n3)n2)c(C)cc1F [2/133] | ≥ 80

Compound | pest or weed control at 200 ppm [%]
Cc1ccc(-c2ncc3ccccc3n2)nc1-c1ccccc1N [3/102] | ≥ 80
COC(=O)c1ccc(-c2nc(-c3ncc4ccccc4n3)ccc2C)cc1 [3/103] | ≥ 80
Cc1ccc(-c2ncc3ccccc3n2)nc1-c1cccc([N+](=O)[O-])c1 [3/104] | ≥ 80
Cc1ccc(-c2ncc3ccccc3n2)nc1-c1c(F)cccc1F [3/105] | ≥ 80
Cc1ccc(-c2ncc3ccccc3n2)nc1-c1ccc2ccccc2c1 [3/106] | ≥ 80
CCOc1ccc(-c2nc(-c3ncc4ccccc4n3)ccc2C)cc1 [3/107] | ≥ 80
CC(=O)c1ccccc1-c1nc(-c2ncc3ccccc3n2)ccc1C [3/108] | ≥ 80
Cc1ccc(-c2ncc3ccccc3n2)nc1-c1cccc(Cl)c1 [3/109] | ≥ 80
COc1cc(-c2nc(-c3ncc4ccccc4n3)ccc2C)cc(OC)c1OC [3/110] | ≥ 80
CCCc1ccc(-c2nc(-c3ncc4ccccc4n3)ccc2C)cc1 [3/114] | ≥ 80
CC(=O)c1ccc(-c2nc(-c3ncc4ccccc4n3)ccc2C)cc1 [3/118] | ≥ 80
Cc1ccc(-c2nc(-c3ncc4ccccc4n3)ccc2C)cc1[N+](=O)[O-] [3/120] | ≥ 80
COC(=O)c1cccc(-c2nc(-c3ncc4ccccc4n3)ccc2C)c1 [3/123] | ≥ 80
CSc1cccc(-c2nc(-c3ncc4ccccc4n3)ccc2C)c1 [3/125] | ≥ 80
Cc1ccc(-c2ncc3ccccc3n2)nc1-c1ccc(CC#N)cc1 [3/126] | ≥ 80
COC(=O)c1ccccc1-c1nc(-c2ncc3ccccc3n2)ccc1C [3/128] | ≥ 80
Cc1ccc(-c2ncc3ccccc3n2)nc1-c1ccc(Cl)cc1C(F)(F)F [3/129] | ≥ 80
CCc1ccc(-c2nc(-c3ncc4ccccc4n3)ccc2C)cc1 [3/131] | ≥ 80
Cc1ccc(-c2ncc3ccccc3n2)nc1-c1cccc(C#N)c1 [3/132] | ≥ 80
CC(=O)c1cccc(-c2nc(-c3ncc4ccccc4n3)ccc2C)c1 [3/133] | ≥ 80
Cc1ccc(-c2ncc3ccccc3n2)nc1-c1cccc(-c2ccccc2)c1 [3/134] | ≥ 80
COc1cccc(OC)c1-c1nc(-c2ncc3ccccc3n2)ccc1C [3/135] | ≥ 80
COc1cc(F)c(F)cc1-c1nc(-c2ncc3ccccc3n2)ccc1C [3/137] | ≥ 80

Compound | pest or weed control at 200 ppm [%]
Cc1ccc(-c2ncc3ccccc3n2)nc1-c1ccc(Cl)c(F)c1Cl [3/138] | ≥ 80
Cc1ccc(-c2ncc3ccccc3n2)nc1-c1ccc(CO)cc1 [3/139] | ≥ 80
CCOCc1ccc(-c2nc(-c3ncc4ccccc4n3)ccc2C)cc1 [3/142] | ≥ 80
c1ccc(Oc2cccc(-c3ncc4ccccc4n3)n2)cc1 [4/24] | ≥ 80
Fc1ccc(Cc2cccc(-c3ncc4ccccc4n3)n2)c(Cl)c1 [6/20] | ≥ 80
c1ccc(-c2ccccc2Cc2cccc(-c3ncc4ccccc4n3)n2)cc1 [6/21] | ≥ 80
Fc1c(Cl)cccc1Cc1cccc(-c2ncc3ccccc3n2)n1 [6/22] | ≥ 80
COc1ccc(Cc2cccc(-c3ncc4ccccc4n3)n2)c(Cl)c1Cl [6/23] | ≥ 80
Fc1ccc(Cc2cccc(-c3ncc4ccccc4n3)n2)cc1F [6/24] | ≥ 80
Fc1cccc(F)c1Cc1cccc(-c2ncc3ccccc3n2)n1 [6/26] | ≥ 80
Clc1ccc(Cc2cccc(-c3ncc4ccccc4n3)n2)cc1Cl [6/27] | ≥ 80
Fc1ccc(Cc2cccc(-c3ncc4ccccc4n3)n2)c(F)c1F [6/28] | ≥ 80
Fc1cc(F)c(F)c(Cc2cccc(-c3ncc4ccccc4n3)n2)c1 [6/29] | ≥ 80
COc1cccc(Cc2cccc(-c3ncc4ccccc4n3)n2)c1OC [6/30] | ≥ 80
N#Cc1ccc(Cc2cccc(-c3ncc4ccccc4n3)n2)cc1 [6/31] | ≥ 80
N#Cc1ccccc1Cc1cccc(-c2ncc3ccccc3n2)n1 [6/32] | ≥ 80
N#Cc1c(Cl)cccc1Cc1cccc(-c2ncc3ccccc3n2)n1 [6/33] | ≥ 80
Fc1ccc(Br)c(Cc2cccc(-c3ncc4ccccc4n3)n2)c1 [6/34] | ≥ 80
Fc1cc(Br)ccc1Cc1cncc(-c2ncc3ccccc3n2)c1 [6/35] | ≥ 80
Clc1ccc(Cc2cccc(-c3ncc4ccccc4n3)n2)c(Cl)c1 [6/37] | ≥ 80
Cc1ccc(Cc2cccc(-c3ncc4ccccc4n3)n2)c(C)c1 [6/38] | ≥ 80
COC(=O)Nc1ccc(Cc2cccc(-c3ncc4ccccc4n3)n2)cc1 [6/39] | ≥ 80
Cc1cc(C)c(Cc2cccc(-c3ncc4ccccc4n3)n2)c(C)c1 [6/40] | ≥ 80

Compound | pest or weed control at 200 ppm [%]
Cc1ccc(C)c(Cc2cccc(-c3ncc4ccccc4n3)n2)c1 [6/41] | ≥ 80
Cc1ccc(Cc2cccc(-c3ncc4ccccc4n3)n2)cc1Cl [6/42] | ≥ 80
COc1ccc(OC)c(Cc2cccc(-c3ncc4ccccc4n3)n2)c1 [6/43] | ≥ 80
Cc1ccccc1Cc1nc(-c2ncc3ccccc3n2)ccc1C [7/20] | ≥ 80
COc1ccccc1Cc1nc(-c2ncc3ccccc3n2)ccc1C [7/21] | ≥ 80
c1ccc(CCc2cccc(-c3ncc4ccccc4n3)n2)cc1 [10/17] | ≥ 80
C(=C\c1cccc(-c2ncc3ccccc3n2)n1)/c1ccccc1 [10/20] | ≥ 80
C(=C/c1cccc(-c2ncc3ccccc3n2)n1)/c1ccccc1 [10/21] | ≥ 80
Cc1ccc(-c2ncc3ccccc3n2)nc1/C=C\c1ccccc1 [10/22] | ≥ 80
Cc1ccc(-c2ncc3ccccc3n2)nc1/C=C/c1ccccc1 [10/23] | ≥ 80
Cc1ccc(-c2ncc3ccc(Cl)cc3n2)nc1-c1ccccc1 [11/11] | ≥ 80
Cc1ccc2cnc(-c3ccc(C)c(-c4ccccc4)n3)nc2c1 [11/12] | ≥ 80
Cc1ccc(-c2ncc3cccc(Cl)c3n2)nc1-c1ccccc1 [11/13] | ≥ 80
Cc1ccc(-c2nc(C)c3cccc(Cl)c3n2)nc1-c1ccccc1 [11/14] | ≥ 80
Cc1ccc(-c2ncc3cccc(C)c3n2)nc1-c1ccccc1 [11/15] | ≥ 80
Cc1ccc(-c2nc(C)c3cccc(C)c3n2)nc1-c1ccccc1 [11/16] | ≥ 80
Cc1ccc(-c2ncc3c(C)cccc3n2)nc1-c1ccccc1 [11/18] | ≥ 80
COc1ccc2nc(-c3ccc(C)c(-c4ccccc4)n3)ncc2c1 [11/19] | ≥ 80
COc1ccc2nc(-c3ccc(C)c(-c4ccccc4)n3)nc(C)c2c1 [11/20] | ≥ 80
Cc1ccc(-c2nc(C)c3c(C)cccc3n2)nc1-c1ccccc1 [11/21] | ≥ 80
CCCCc1nc(-c2cccc(Cc3ccccc3)n2)nc2ccccc12 [12/5] | ≥ 80
